Consider 26 compounds from patent publication US9290485B2, “N-((6-amino-pyridin-3-yl)methyl)-heteroaryl-carboxamides” (NOVARTIS AG, priority 2010, dated 2016).

Usually IC50 stands for the point on the concentration scale where inhibition reaches its midpoint. Low readings indicate higher potency, high ones lower potency.

human plasma kallikrein, sequence (P03952 whole entry, looked up): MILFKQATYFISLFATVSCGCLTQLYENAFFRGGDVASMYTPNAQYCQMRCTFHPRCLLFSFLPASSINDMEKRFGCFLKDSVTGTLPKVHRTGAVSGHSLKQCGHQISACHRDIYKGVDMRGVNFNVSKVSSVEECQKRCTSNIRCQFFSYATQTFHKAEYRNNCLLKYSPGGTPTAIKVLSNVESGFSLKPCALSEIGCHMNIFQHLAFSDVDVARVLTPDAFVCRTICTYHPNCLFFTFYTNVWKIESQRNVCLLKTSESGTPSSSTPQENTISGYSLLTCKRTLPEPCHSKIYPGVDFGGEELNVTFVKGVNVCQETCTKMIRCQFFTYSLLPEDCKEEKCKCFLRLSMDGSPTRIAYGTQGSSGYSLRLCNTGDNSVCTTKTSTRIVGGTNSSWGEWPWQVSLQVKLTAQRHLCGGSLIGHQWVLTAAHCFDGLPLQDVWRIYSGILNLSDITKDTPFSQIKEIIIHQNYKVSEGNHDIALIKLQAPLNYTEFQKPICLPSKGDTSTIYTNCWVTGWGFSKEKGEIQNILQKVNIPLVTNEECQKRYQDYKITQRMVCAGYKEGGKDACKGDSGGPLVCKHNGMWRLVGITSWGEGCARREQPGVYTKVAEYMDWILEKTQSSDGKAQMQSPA
human plasma kallikrein, sequence (P03952 whole entry partner, looked up): as the sequence (P03952 whole entry, looked up) above

This assay has as its target human plasma kallikrein (Homo sapiens (Human), UniProt P03952). Conditions: human plasma kallikrein 25 pM, substrate 0.5 uM, 1 hour pre-incubation at room temperature, read at t=60 min.
Method: All other chemicals were of analytical grade.
A stock solution of 0.17 mg/ml deinonized water was stored at −80° C. Enzymatic reactions were conducted in ‘assay buffer’, comprising 50 mM Hepes/NaOH at pH 7.8, 150 mM NaCl, 1 mM EDTA and 0.05% (w/v) CHAPS.
Both, enzyme and substrate were diluted in assay buffer.
All protein and peptide containing solutions were handled in siliconized tubes (Life Systems Design, Merenschwand, Switzerland). […] Plate measurements were conducted by the means of a Safire2 reader (TECAN, Maennedorf, Switzerland). The Safire2 is a monochomator-based instrument and wavelengths of 485 nm and 535 nm were taken for fluorescence excitation and emission acquisition, respectively. The bandwidths were set to 10 nm in both the excitation and the emission path. The fluorescence in each well was excited by three flashes per measurement.
The test compound was dissolved in 90% (v/v) DMSO/water. For the assays, 250 nL of the 90% (v/v) DMSO/water solution or compound solution were added per well, followed by the addition of 12.5 μl protease solution (protease in assay buffer). […] After 1 hour of pre-incubation at room temperature, the reactions were started by the addition of 12.5 μl substrate solution (in assay buffer, final assay concentration was 0.5 uM). After the addition of the substrate solution, the final DMSO concentration in the assay was 0.9% (v/v). […] The IC50 value was calculated from the plot of percentage of inhibition vs. inhibitor concentration by a logistics fit according to the following equation: y=A2+(A1−A2)/(1+(x/IC50)^p) where y is the %-inhibition at the inhibitor concentration, x. A1 is the lowest inhibition value, i.e. 0%, and A2 the maximum inhibition value, i.e. 100%. The exponent, p, is the Hill coefficient. The curve fitting was conducted with the non-linear regression routine of the analysis software Origin 7.55R6 (OriginLab Corporation).
In turn, `Cc1cc(N)nc(C)c1CNC(=O)c1nc(Cc2ccccc2)no1` [Example 5, N-((6-amino-2,4-dimethylpyridin-3-yl)methyl)-3-benzyl-1,2,4-oxadiazole-5-carboxamide] showed an IC50 of 4500 nM. As for `Cc1cc(N)nc(C)c1CNC(=O)c1cn(Cc2cccc(Cn3ccnc3)c2)nn1` [Example 46, 1-(3-((1H-imidazol-1-yl)methyl)benzyl)-N-((6-amino-2,4-dimethylpyridin-3-yl)methyl)-1H-1,2,3-triazole-4-carboxamide], the figure is 1100 nM; as for `Cc1cc(N)nc(C)c1CNC(=O)c1cnn(Cc2csc(Nc3ccccc3)n2)c1` [Example 25, N-((6-amino-2,4-dimethylpyridin-3-yl)methyl)-1-((2-(phenylamino)thiazol-4-yl)methyl)-1H-pyrazole-4-carboxamide], 109 nM; as for `Cc1cc(N)nc(C)c1CNC(=O)c1cnn(Cc2ccc3c(c2)N(C)C(=O)CO3)c1` [Example 151, N-((6-Amino-2,4-dimethylpyridin-3-yl)methyl)-1-((4-methyl-3-oxo-3,4-dihydro-2H-benzo[b][1,4]oxazin-6-yl)methyl)-1H-pyrazole-4-carboxamide], 13 nM. The same measure for `Cc1cc(N)nc(C)c1CNC(=O)c1cnn(Cc2ccc(OCc3ccccc3)cc2)c1` [Example 94, N-((6-amino-2,4-dimethylpyridin-3-yl)methyl)-1-(4-(benzyloxy)benzyl)-1H-pyrazole-4-carboxamide]: 2.1 nM; for `Cc1cc(N)nc(C)c1CNC(=O)c1n[nH]c([C@@H](N)c2ccccc2)n1` [Example 123, (S)-5-(amino(phenyl)methyl)-N-((6-amino-2,4-dimethylpyridin-3-yl)methyl)-1H-1,2,4-triazole-3-carboxamide]: 15800 nM; for `Cc1cc(N)nc(C)c1CNC(=O)c1ncn(Cc2cccc3ccccc23)n1` [Example 62, N-((6-amino-2,4-dimethylpyridin-3-yl)methyl)-1-(naphthalen-1-ylmethyl)-1H-1,2,4-triazole-3-carboxamide]: 681 nM. As for `Cc1cc(N)nc(C)c1CNC(=O)c1cn(Cc2ccc(-n3cccn3)cc2)cn1` [Example 24, 1-(4-(1H-pyrazol-1-yl)benzyl)-N-((6-amino-2,4-dimethylpyridin-3-yl)methyl)-1H-imidazole-4-carboxamide], the figure is 238 nM; as for `COc1cc(N)nc(C)c1CNC(=O)c1cnn(Cc2ccccc2)c1` [Example 14, N-((6-amino-4-methoxy-2-methylpyridin-3-yl)methyl)-1-benzyl-1H-pyrazole-4-carboxamide], 320 nM; as for `Cc1nc(N)cc(OC2CCCCC2)c1CNC(=O)c1cnn(Cc2ccccc2)c1` [Example 15, N-((6-amino-4-(cyclohexyloxy)-2-methylpyridin-3-yl)methyl)-1-benzyl-1H-pyrazole-4-carboxamide], 230 nM. In the case of `Cc1cc(N)nc(C)c1CNC(=O)c1cnn(Cc2cn3ccccc3n2)c1` [Example 30, N-((6-amino-2,4-dimethylpyridin-3-yl)methyl)-1-(imidazo[1,2-a]pyridin-2-ylmethyl)-1H-pyrazole-4-carboxamide], the IC50 was 204 nM.

The compound `Cc1cc(N)nc(C)c1CNC(=O)c1cnn(Cc2ccc(OCC(=O)O)cc2)c1` [Example 134, 2-(4-((4-((6-amino-2,4-dimethylpyridin-3-yl)methylcarbamoyl)-1H-pyrazol-1-yl)methyl)phenoxy)acetic acid] registered an IC50 of 1100 nM.

As to `Cc1cc(N)nc(C)c1CNC(=O)c1ccc(Oc2ccccc2)o1` [Example 48, N-((6-amino-2,4-dimethylpyridin-3-yl)methyl)-5-phenoxyfuran-2-carboxamide], the IC50 came to 35500 nM. Turning to `Cc1cc(N)nc(C)c1CNC(=O)c1cnn(Cc2ccc(S(=O)(=O)N(C)C)cc2)c1` [Example 126, N-((6-amino-2,4-dimethylpyridin-3-yl)methyl)-1-(4-(N,N-dimethylsulfamoyl)benzyl)-1H-pyrazole-4-carboxamide], the midpoint of inhibition, the IC50, lay at 670 nM.

Turning to `Cc1cc(N)nc(C)c1CNC(=O)c1cnn(Cc2ccc(OCC#N)cc2)c1` [Example 135, N-((6-amino-2,4-dimethylpyridin-3-yl)methyl)-1-(4-(cyanomethoxy)benzyl)-1H-pyrazole-4-carboxamide], inhibition was half-maximal at 89 nM (IC50). Compound `Cc1cc(N)nc(C)c1CNC(=O)c1ncn(Cc2ccccc2)n1` [Example 56, N-((6-amino-2,4-dimethylpyridin-3-yl)methyl)-1-benzyl-1H-1,2,4-triazole-3-carboxamide] had a concentration for half-maximal inhibition (IC50) of 4400 nM. The same measure for `Cc1cc(N)nc(C)c1CNC(=O)c1cnn(Cc2ccc3[nH]cnc3c2)c1` [Example 33, 1-((1H-benzo[d]imidazol-5-yl)methyl)-N-((6-amino-2,4-dimethylpyridin-3-yl)methyl)-1H-pyrazole-4-carboxamide]: 262 nM. As for `Cc1cc(N)nc(C)c1CNC(=O)c1cnn(Cc2cccc(S(=O)(=O)N3CCOCC3)c2)c1` [Example 116, N-((6-amino-2,4-dimethylpyridin-3-yl)methyl)-1-(3-(morpholinosulfonyl)benzyl)-1H-pyrazole-4-carboxamide], the figure is 197 nM; as for `Cc1cc(N)nc(C)c1CNC(=O)c1cn(Cc2cccc(-n3cccn3)c2)nn1` [Example 42, 1-(3-(1H-pyrazol-1-yl)benzyl)-N-((6-amino-2,4-dimethylpyridin-3-yl)methyl)-1H-1,2,3-triazole-4-carboxamide], 145 nM; as for `Cc1cc(N)nc(C)c1CNC(=O)c1cnn(Cc2ncoc2-c2ccccc2)c1` [Example 35, N-((6-amino-2,4-dimethylpyridin-3-yl)methyl)-1-((5-phenyloxazol-4-yl)methyl)-1H-pyrazole-4-carboxamide], 3900 nM. The same measure for `Cc1cc(N)nc(C)c1CNC(=O)c1cnn(Cc2ccc(-c3ccncc3)cc2)c1` [Example 114, N-((6-amino-2,4-dimethylpyridin-3-yl)methyl)-1-(4-(pyridin-4-yl)benzyl)-1H-pyrazole-4-carboxamide]: 30 nM; for `Cc1cc(N)nc(C)c1CNC(=O)c1cnn(Cc2cccnc2)c1` [Example 98, N-((6-amino-2,4-dimethylpyridin-3-yl)methyl)-1-(pyridin-3-ylmethyl)-1H-pyrazole-4-carboxamide]: 3800 nM.

`Cc1cc(N)nc(C)c1CNC(=O)c1ncn(Cc2ccc(Oc3ccccc3)cc2)n1` [Example 63, N-((6-amino-2,4-dimethylpyridin-3-yl)methyl)-1-(4-phenoxybenzyl)-1H-1,2,4-triazole-3-carboxamide] gave an IC50 of 11 nM. As for `Cc1cc(N)nc(C)c1CNC(=O)c1ncn(Cc2ccc(-c3ccccc3)cc2)n1` [Example 61, N-((6-amino-2,4-dimethylpyridin-3-yl)methyl)-1-(biphenyl-4-ylmethyl)-1H-1,2,4-triazole-3-carboxamide], the figure is 46 nM. The same measure for `Cc1nc(N)cc(OCC(=O)C(C)(C)C)c1CNC(=O)c1cnn(Cc2ccc3ccccc3c2)c1` [Example 149, N-((6-amino-4-(3,3-dimethyl-2-oxobutoxy)-2-methylpyridin-3yl)methyl)-1-(naphthalen-2-ylmethyl)-1H-pyrazole-4-carboxamide]: 7.8 nM; for `Cc1cc(N)nc(C)c1CNC(=O)c1ncn(Cc2cccc(N3CCCC3)c2)n1` [Example 68, N-((6-amino-2,4-dimethylpyridin-3-yl)methyl)-1-(3-(pyrrolidin-1-yl)benzyl)-1H-1,2,4-triazole-3-carboxamide]: 34 nM.
